Results from US20100144779A1, “Marine Alkalod Makaluvamines and Derivatives Thereof” (THE UAB RESEARCH FOUNDATION, priority 2007, published 2010).
“Also recorded” adds a separate entry of the source.

Experiments:
HCT-116 = test: XTT cytotoxicity assay; type: cell-based, human; settings: average ± standard deviation of 2-4 independent assays, read-out: Inhibition of Cancer Cell Proliferation (IC50) HCT-116
Procedure: (§1) In initial experiments, compounds 4a-g and 7c-g were evaluated for their cytotoxicity against human breast cancer cell lines MCF-7 and MDA-MB-468 and human colon cancer cell line HCT-116. The makaluvamine compounds provided in Table 2 were also evaluated for their cytotoxicity against human breast cancer cell lines MCF-7. Compound nos. 8 and 27-33 were not evaluated in this experiment. Cells were obtained from ATCC (Manassas, Va.). For each derivative the IC50 value was determined using data generated from 2-4 independent tetrazolium-based (XTT) cytotoxicity assays (R & D Systems Inc., Minneapolis, Minn.) according to the manufacturer's instructions. […] MCF-7, MDA-MD-468 and HCT-116 cells were grown at 37 degrees C. in a humidified atmosphere with complete growth media supplemented with fetal bovine serum. Growth media was changed 2-3 times per week as required.

MCF-7 = test: XTT cytotoxicity assay; type: cell-based, human; settings: XTT; average ± standard deviation of 2-4 independent assays; read-out: Inhibition of Cancer Cell Proliferation (IC50) MCF-7
Procedure: as §1

MDA-MB-468 = test: XTT cytotoxicity assay; type: cell-based, human; settings: average ± standard deviation of 2-4 independent assays, read-out: Inhibition of Cancer Cell Proliferation (IC50) MDA-MB-468
Procedure: as §1

topoisomerase II = molecular target: T1, topoisomerase II (Homo sapiens, UniProt P11388); test: Topoisomerase II drug screening kit (relaxation of plasmid DNA); type: biochemical; design: key to Topoisomerase II Inhibition: — none; + low; ++ moderate; +++ strong; settings: for Topoisomerase II Inhibition: 100 μM drug compound, topoisomerase II (4U), 500 ng plasmid DNA; for inhibition of topoisomerase II catalytic activity (in words): 100 μM makaluvamine derivative
T1 construct: purchased TopoGEN, Inc., Port Orange, Fla
From the text: In order to determine the effect of the makaluvamine derivatives of the present disclosure, the synthesized makaluvamine derivatives were screened for their ability to inhibit topoisomerase II activity in vitro. Topoisomerase II functions by generating a double-stranded DNA break followed by resealing of the break. Topoisomerase II inhibitors interfere with the breakage-rejoining reaction thereby trapping the enzyme in a cleavage complex. In order to determine if the disclosed makaluvamine derivatives inhibited topoisomerase II activity, nine of the derivatives were tested for topoisomerase II inhibitory activity using a topoisomerase-II drug screening kit (TopoGEN, Inc., Port Orange, Fla.) according to the manufacturer's instructions. The screening kit uses a supercoiled plasmid DNA substrate (pRYG) which contains one topoisomerase II cleavage/recognition site. […] Relaxed DNA was separated using non-ethidium bromide (EtBr) agarose gels, then stained with EtBr and quantified using Kodak Gel Logic Imaging System and Molecular Imaging software (Eastman Kodak Co., Rochester, N.Y.). Inhibition of relaxation of plasmid DNA or catalytic activity was reported as; − none, + low, ++ moderate, or +++ strong.

MCF7 cells = test: MTT growth inhibition assay; type: cell-based, human; settings: Table 5, MTT, 72 hr; for IC50: read-out: Growth inhibitory activity (IC50) in MCF7 cells
Procedure: The cell lines were obtained from the American Type Culture Collection (Rockville, Md.) and were grown as follows: MCF-7 (p53 wt) breast cancer cells were grown in DMEM media containing 1 mM non-essential amino acids, Earle's BSS, 1 mM Na pyruvate, and 10 mg/L bovine insulin.
All media contained 10% FBS and 1% penicillin/streptomycin unless otherwise specified. The effects of disclosed compounds on human cancer cell growth, expressed as the percentage of cell survival, were determined by the MTT [3-(4,5-Dimethyl-2-thiazolyl)-2,5-diphenyl-2H-tetrazolium bromide] assay. Cells were grown in 96-well plates and exposed to the test compounds (0, 0.01, 0.1, 1, 10, 100 μM) for 72 hr followed by addition of 10 μL MTT solution (5 mg/mL; Sigma; St. Louis, Mo.) to each well. The plates were incubated for 2-4 hr at 37° C. The supernatant was then removed and formazan crystals were dissolved with 100 μL of DMSO. The absorbance at 570 nm was recorded with an OPTImax microplate reader (Molecular Devices; Sunnyvale, Calif.). The cell survival percentages were calculated by dividing the mean OD of compound containing wells by that of DMSO-control wells. Three separate experiments were accomplished to determine the IC50.

MDM2 = test: Protein expression, Western blot in MCF-7 cells; type: cell-based, human; settings: 1 μM, 6 h (FIG. 4A)
Procedure: (§2) In FIG. 4A, MCF-7 cells were exposed to 1 μM concentration of the indicated compounds for 6 hours. Western blots were probed with antibodies specific for the proteins indicated. Numbers below each lane show densitometry readings for each lane as compared to control. […] Western blots were probed with antibodies specific for the proteins indicated.
(§3) To determine the disclosed compounds effect on protein expression in human breast cancer cells, cultured MCF-7 cells were exposed to various concentrations of the test compounds for 6 h (FIG. 4A) or 24 h (FIG. 4B). Cell lysates were fractionated with identical amounts of protein by SDS-PAGE and transferred to Bio-Rad trans-Blot nitrocellulose membranes (Bio-Rad Laboratories, Hercules, Calif.). The nitrocellulose membrane was incubated in blocking buffer (Tris-buffered saline containing 0.1% Tween 20 and 5% nonfat milk) for 1 h at room temperature, then with the appropriate primary antibody overnight at 4° C. or 2 h at room temperature with gentle shaking. Finally, the membrane was washed three times with the washing buffer (Tris-buffered saline containing 0.1% Tween 20) for 15 min, incubated with goat anti mouse/rabbit IgG-horseradish peroxidase-conjugated antibody (Bio-Rad) for 1 h at room temperature, and washed again (in triplicate). The protein of interest was detected by enhanced chemiluminescence reagents from PerkinElmer LAS, Inc (Boston, Mass.).

p21 = test: Protein expression, Western blot in MCF-7 cells; type: cell-based, human; settings: 1 μM, 6 h (FIG. 4A)
Procedure: as §2, §3

p53 = test: Protein expression, Western blot in MCF-7 cells; type: cell-based, human; settings: 1 μM, 6 h (FIG. 4A)
Procedure: as §2, §3

T1 sequence (P11388 whole entry): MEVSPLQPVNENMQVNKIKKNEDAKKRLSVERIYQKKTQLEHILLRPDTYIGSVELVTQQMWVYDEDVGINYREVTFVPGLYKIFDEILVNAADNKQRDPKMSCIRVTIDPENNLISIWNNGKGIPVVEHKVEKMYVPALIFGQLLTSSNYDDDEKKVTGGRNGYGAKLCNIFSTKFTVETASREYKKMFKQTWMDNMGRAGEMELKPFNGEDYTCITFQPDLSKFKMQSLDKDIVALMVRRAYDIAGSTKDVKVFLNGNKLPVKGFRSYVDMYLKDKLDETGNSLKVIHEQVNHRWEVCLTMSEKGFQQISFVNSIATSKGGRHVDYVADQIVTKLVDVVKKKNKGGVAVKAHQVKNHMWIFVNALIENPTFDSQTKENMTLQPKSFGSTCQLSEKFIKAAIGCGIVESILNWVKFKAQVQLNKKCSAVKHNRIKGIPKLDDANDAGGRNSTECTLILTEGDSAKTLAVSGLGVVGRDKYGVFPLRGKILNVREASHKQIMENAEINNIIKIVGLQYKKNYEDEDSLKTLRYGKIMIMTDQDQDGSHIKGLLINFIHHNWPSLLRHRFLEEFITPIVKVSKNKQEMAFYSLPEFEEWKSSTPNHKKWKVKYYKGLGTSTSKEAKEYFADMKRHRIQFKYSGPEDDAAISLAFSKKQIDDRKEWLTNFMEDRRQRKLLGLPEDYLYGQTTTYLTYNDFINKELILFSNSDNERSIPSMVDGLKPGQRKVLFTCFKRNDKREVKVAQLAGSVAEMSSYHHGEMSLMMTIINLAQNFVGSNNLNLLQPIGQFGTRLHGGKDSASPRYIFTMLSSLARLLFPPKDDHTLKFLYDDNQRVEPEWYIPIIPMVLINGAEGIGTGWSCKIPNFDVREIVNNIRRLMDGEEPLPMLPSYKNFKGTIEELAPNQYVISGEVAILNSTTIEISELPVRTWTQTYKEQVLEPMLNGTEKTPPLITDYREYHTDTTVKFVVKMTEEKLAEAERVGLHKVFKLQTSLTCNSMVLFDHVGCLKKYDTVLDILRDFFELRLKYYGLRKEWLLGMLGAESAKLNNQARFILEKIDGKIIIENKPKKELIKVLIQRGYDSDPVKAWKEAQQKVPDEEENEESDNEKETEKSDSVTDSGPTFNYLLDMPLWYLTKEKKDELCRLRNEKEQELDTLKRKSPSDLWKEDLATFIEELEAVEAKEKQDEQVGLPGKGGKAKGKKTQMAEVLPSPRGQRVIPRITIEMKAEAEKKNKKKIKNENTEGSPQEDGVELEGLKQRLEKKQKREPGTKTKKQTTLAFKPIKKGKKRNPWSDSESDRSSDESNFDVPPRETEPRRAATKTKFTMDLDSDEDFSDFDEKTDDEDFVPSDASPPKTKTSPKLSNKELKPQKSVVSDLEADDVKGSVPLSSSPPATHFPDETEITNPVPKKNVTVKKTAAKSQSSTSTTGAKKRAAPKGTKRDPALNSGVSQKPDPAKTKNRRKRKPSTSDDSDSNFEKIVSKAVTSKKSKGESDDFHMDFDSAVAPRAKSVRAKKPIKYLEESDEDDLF

Row | SMILES | IC50 (HCT-116) [nM] | IC50 (MCF-7) [nM] | IC50 (MDA-MB-468) [nM] | Topoisomerase II Inhibition (topoisomerase II) | inhibition of topoisomerase II catalytic activity (in words) (topoisomerase II) | Growth inhibitory activity (IC50) in MCF7 cells (MCF7 cells) | IC50 (MCF7 cells) [nM] | expression of MDM2 (MDM2) | expression of p21 (p21) | expression of p53 (p53)
1 | COc1cc(NS(C)(=O)=O)ccc1Nc1c2ccccc2nc2ccccc12 [m-AMSA, reference compound] | 700 | 21700 | 8500 | ++ |  |  |  |  |  | 
2 | Cc1ccc(S(=O)(=O)n2cc3c4c2C(=O)C(NCc2ccccc2)=CC4=NCC3)cc1 [Compound 7c] | 2700 ± 1500 | 1800 ± 200 | 1000 ± 10 | +++ | comparable to etoposide and m-AMSA; also recorded: strongest inhibition | μM range | 1200 | inhibited the expression | decreased the expression | increased the expression
3 | O=C1C(NCCc2c[nH]c3ccccc23)=CC2=NCCc3c[nH]c1c32 [Compound 4g] | 5200 ± 800 | 1600 ± 200 | 400 ± 10 | — |  |  |  |  |  | 
4 | O=C1C(NCCc2cc(Br)c(O)c(Br)c2)=CC2=NCCc3c[nH]c1c32 [Compound 4f] | 14400 ± 1200 | 13200 ± 3100 | 4500 ± 800 | +++ | comparable to etoposide and m-AMSA; also recorded: strongest inhibition | μM range | 2720 | increased the expression | increased the expression | increased the expression
5 | CCNC1=CC2=NCCc3c[nH]c(c32)C1=O [Compound 4b] | 3600 ± 700 | 1300 ± 300 | 400 ± 30 | — |  |  |  |  |  | 
